This assay concerns the target Human TRPA1 (Homo sapiens, UniProt O75762). The experiment in a line: Assay 1: In vitro cellular testing of TRPA1 modulation (CHO-TREx, Fluo-3 calcium fluorescence, AITC agonist). As to conditions: CHO-TREx cells expressing human TRPA1; Fluo-3 fluorescence (FLIPR/Tetra); agonist 15 μM allyl isothiocyanate (AITC); 30 minute antagonist incubation. The assay is classed as cell-based. More on the design: expressed in transfected cells; host or cells: CHO-TREx cells (Invitrogen), vector pcDNA4/TO. An outline of the steps: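 Antagonist potency is the 50% reduction of the AITC (15 μM) calcium response, Hill-fitted against no-antagonist and 10 μM ruthenium red controls. Fluo-3-loaded (4 μM) CHO-TREx cells with tetracycline-inducible human TRPA1 got compound in HEPES saline pH 7.4 for 30 min, usually from 10 μM in three-fold dilutions.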

The results in this text go back to patent US8614201B2 (Janssen Pharmaceutica NV, priority 2009, dated 2013).

Human TRPA1, sequence (O75762 whole entry): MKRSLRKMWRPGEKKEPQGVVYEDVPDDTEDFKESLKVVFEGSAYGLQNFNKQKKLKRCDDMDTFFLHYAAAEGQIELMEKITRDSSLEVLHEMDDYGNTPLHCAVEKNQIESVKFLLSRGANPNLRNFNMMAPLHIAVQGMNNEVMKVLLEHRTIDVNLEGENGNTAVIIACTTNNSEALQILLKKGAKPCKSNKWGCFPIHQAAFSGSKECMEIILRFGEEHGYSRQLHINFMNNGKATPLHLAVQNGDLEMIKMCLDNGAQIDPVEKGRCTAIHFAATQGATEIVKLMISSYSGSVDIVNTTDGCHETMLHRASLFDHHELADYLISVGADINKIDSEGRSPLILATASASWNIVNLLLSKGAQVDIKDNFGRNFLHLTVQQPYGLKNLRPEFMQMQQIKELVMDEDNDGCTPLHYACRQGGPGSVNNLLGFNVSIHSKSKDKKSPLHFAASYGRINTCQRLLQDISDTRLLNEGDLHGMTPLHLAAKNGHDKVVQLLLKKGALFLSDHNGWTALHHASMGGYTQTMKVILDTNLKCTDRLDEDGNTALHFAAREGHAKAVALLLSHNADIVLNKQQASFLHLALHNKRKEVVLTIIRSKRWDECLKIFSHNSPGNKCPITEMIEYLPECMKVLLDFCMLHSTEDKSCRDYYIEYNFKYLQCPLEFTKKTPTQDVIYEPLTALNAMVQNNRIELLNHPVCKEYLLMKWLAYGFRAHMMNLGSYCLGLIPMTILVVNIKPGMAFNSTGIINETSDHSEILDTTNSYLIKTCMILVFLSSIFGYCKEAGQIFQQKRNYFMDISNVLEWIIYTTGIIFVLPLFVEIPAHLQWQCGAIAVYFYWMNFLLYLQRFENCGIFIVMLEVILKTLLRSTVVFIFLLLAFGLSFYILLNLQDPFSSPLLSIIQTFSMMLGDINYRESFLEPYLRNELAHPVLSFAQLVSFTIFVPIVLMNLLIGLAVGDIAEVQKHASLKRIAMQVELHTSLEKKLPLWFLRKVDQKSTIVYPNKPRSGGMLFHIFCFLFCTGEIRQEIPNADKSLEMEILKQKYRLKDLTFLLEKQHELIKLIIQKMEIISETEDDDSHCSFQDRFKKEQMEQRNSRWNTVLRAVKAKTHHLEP

`O=C(NCc1cc(-c2ccc(C(F)(F)F)cc2)ncn1)[C@@H]1CC(F)(F)CN1S(=O)(=O)c1ccc(F)cc1` [Example 179, (2S)-4,4-Difluoro-1-(4-fluoro-benzenesulfonyl)-pyrrolidine-2-carboxylic acid [6-(4-trifluoromethyl-phenyl)-pyrimidin-4-ylmethyl]-amide]: the IC50 (commonly the concentration that inhibits the measured activity by half) came to 229 nM. As for `O=C(NCc1cc(-c2ccc(C(F)(F)F)cc2)ncn1)[C@@H]1CC(F)(F)CN1S(=O)(=O)c1ccc(Cl)s1` [Example 180, (2S)-1-(5-Chloro-thiophene-2-sulfonyl)-4,4-difluoro-pyrrolidine-2-carboxylic acid [6-(4-trifluoromethyl-phenyl)-pyrimidin-4-ylmethyl]-amide], the figure is 228 nM; as for `Cc1nc(CNC(=O)[C@@H]2CCCN2S(=O)(=O)c2ccc(F)cc2)cc(-c2ccc(C(F)(F)F)cc2)n1` [Example 183, 1-(4-Fluoro-benzenesulfonyl)-pyrrolidine-2S-carboxylic acid [2-methyl-6-(4-trifluoromethyl-phenyl)-pyrimidin-4-ylmethyl]-amide], 20 nM. Next, `O=C(NCc1nccc(-c2ccc(C(F)(F)F)cc2)n1)[C@@H]1CCCN1S(=O)(=O)c1ccc(F)cc1` [Example 185, (2S)-1-(4-Fluoro-benzenesulfonyl)-pyrrolidine-2-carboxylic acid [4-(4-trifluoromethyl-phenyl)-pyrimidin-2-ylmethyl]-amide]: 433 nM; `O=C(NCc1nccc(-c2ccc(C(F)(F)F)cc2)n1)[C@@H]1CCCN1S(=O)(=O)c1ccc(Cl)s1` [Example 186]: 227 nM; `O=C(NCc1ccnc(-c2ccc(C(F)(F)F)cc2)n1)[C@@H]1CCCN1S(=O)(=O)c1ccc(F)cc1` [Example 187, (2S)-1-(4-Fluoro-benzenesulfonyl)-pyrrolidine-2-carboxylic acid [2-(4-trifluoromethyl-phenyl)-pyrimidin-4-ylmethyl]-amide]: 806 nM.

For the compound `O=C(NCc1cc(-c2ccc(C(F)(F)F)cc2)nc(N2CCC(Cc3ccccc3)CC2)n1)[C@@H]1CCCN1S(=O)(=O)c1ccc(F)cc1` [Example 189, 1-(4-Fluoro-benzenesulfonyl)-pyrrolidine-2S-carboxylic acid [2-(4-benzyl-piperidin-1-yl)-6-(4-trifluoromethyl-phenyl)-pyrimidin-4-ylmethyl]-amide], the IC50 amounted to 2 nM. For the compound `O=C(NCc1cc(-c2ccc(C(F)(F)F)cc2)nc(NC2CCCC2)n1)[C@@H]1CCCN1S(=O)(=O)c1ccc(F)cc1` [Example 193, 1-(4-Fluoro-benzenesulfonyl)-pyrrolidine-2S-carboxylic acid [2-cyclopentylamino-6-(4-trifluoromethyl-phenyl)-pyrimidin-4-ylmethyl]-amide], the 50% inhibitory concentration (IC50) was found to be 85 nM. Next, `O=C(NCc1cc(-c2ccc(C(F)(F)F)cc2)nc(N2CCCC2)c1)[C@@H]1CCCN1S(=O)(=O)c1ccc(F)cc1` [Example 317, 1-(4-Fluoro-benzenesulfonyl)-pyrrolidine-S2-carboxylic acid [2-pyrrolidin-1-yl-6-(4-trifluoromethyl-phenyl)-pyridin-4-ylmethyl]-amide]: 16 nM; `O=C(NCc1cc(-c2ccc(C(F)(F)F)cc2)nc(N2CCCCC2)c1)[C@@H]1CCCN1S(=O)(=O)c1ccc(F)cc1` [Example 318, 1-(4-Fluoro-benzenesulfonyl)-pyrrolidine-S2-carboxylic acid [6′-(4-trifluoromethyl-phenyl)-3,4,5,6-tetrahydro-2H-[1,2′]bipyridinyl-4′-ylmethyl]-amide]: 29 nM; `O=C(NCc1cc(-c2ccc(C(F)(F)F)cc2)nc(N2CCCCC2)c1)[C@@H]1CCCN1S(=O)(=O)c1ccc(Cl)s1` [Example 319, 1-(5-Chloro-thiophene-2-sulfonyl)-pyrrolidine-S2-carboxylic acid [6′-(4-trifluoromethyl-phenyl)-3,4,5,6-tetrahydro-2H-[1,2′]bipyridinyl-4′-ylmethyl]-amide]: 21 nM. Next, `O=C(NCc1cc(NCc2ccccc2)nc(-c2ccc(C(F)(F)F)cc2)c1)[C@@H]1C=CCN1S(=O)(=O)c1ccc(Cl)s1` [Example 320, (2S)—N-({2-(Benzylamino)-6-[4-(trifluoromethyl)phenyl]pyridin-4-yl}methyl)-1-[(5-chlorothiophen-2-yl)sulfonyl]-2,5-dihydro-1H-pyrrole-2-carboxamide]: 745 nM.

Consider `O=C(NCc1cc(NCc2ccccc2)nc(-c2ccc(C(F)(F)F)cc2)c1)[C@@H]1C=CCN1S(=O)(=O)c1ccc(F)cc1` [Example 321, (2S)—N-({2-(Benzylamino)-6-[4-(trifluoromethyl)phenyl]pyridin-4-yl}methyl)-1-[(4-fluorophenyl)sulfonyl]-2,5-dihydro-1H-pyrrole-2-carboxamide], for which the IC50 was found to be 1020 nM. Next, `O=C(NCc1cc(NCc2ccccc2)nc(-c2ccc(C(F)(F)F)cc2)c1)[C@@H]1CCCN1S(=O)(=O)c1ccc(F)cc1` [Example 322, N-({2-(Benzylamino)-6-[4-(trifluoromethyl)phenyl]pyridin-4-yl}methyl)-1-[(4-fluorophenyl)sulfonyl]-L-prolinamide]: 1180 nM; `O=C(NCc1cc(NCc2ccccc2)nc(-c2ccc(C(F)(F)F)cc2)c1)[C@@H]1CCCN1S(=O)(=O)c1ccc(Cl)s1` [Example 323, N-({2-(Benzylamino)-6-[4-(trifluoromethyl)phenyl]pyridin-4-yl}methyl)-1-[(5-chlorothiophen-2-yl)sulfonyl]-L-prolinamide]: 510 nM. As for `O=C(NCc1cc(-c2ccc(C(F)(F)F)cc2)nc(N2CCN(c3ccccc3F)CC2)c1)[C@@H]1CCCN1S(=O)(=O)c1ccc(Cl)s1` [Example 324, 1-[(5-Chlorothiophen-2-yl)sulfonyl]-N-({2-[4-(2-fluorophenyl)piperazin-1-yl]-6-[4-(trifluoromethyl)phenyl]pyridin-4-yl}methyl)-L-prolinamide], the figure is 412 nM; as for `O=C(NCc1cc(-c2ccc(C(F)(F)F)cc2)nc(N2CCN(c3ccccc3F)CC2)c1)[C@@H]1CCCN1S(=O)(=O)c1ccc(F)cc1` [Example 325, N-({2-[4-(2-Fluorophenyl)piperazin-1-yl]-6-[4-(trifluoromethyl)phenyl]pyridin-4-yl}methyl)-1-[(4-fluorophenyl)sulfonyl]-L-prolinamide], 845 nM; as for `O=C(NCc1cc(-c2ccc(C(F)(F)F)cc2)nc(N2CCN(c3ccccc3F)CC2)c1)[C@@H]1C=CCN1S(=O)(=O)c1ccc(F)cc1` [Example 326, (2S)—N-({2-[4-(2-Fluorophenyl)piperazin-1-yl]-6-[4-(trifluoromethyl)phenyl]pyridin-4-yl}methyl)-1-[(4-fluorophenyl)sulfonyl]-2,5-dihydro-1H-pyrrole-2-carboxamide], 5970 nM.

Take `O=C(NCc1cc(-c2ccc(C(F)(F)F)cc2)nc(N2CCN(Cc3ccncc3)CC2)c1)[C@@H]1CCCN1S(=O)(=O)c1ccc(Cl)s1` [Example 327, 1-[(5-Chlorothiophen-2-yl)sulfonyl]-N-({2-[4-(pyridin-4-ylmethyl)piperazin-1-yl]-6-[4-(trifluoromethyl)phenyl]pyridin-4-yl}methyl)-L-prolinamide]: the IC50 came out at 587 nM. Next, `O=C(NCc1cc(-c2ccc(C(F)(F)F)cc2)nc(N2CCN(Cc3cccnc3)CC2)c1)[C@@H]1CCCN1S(=O)(=O)c1ccc(F)cc1` [Example 328, 1-[(4-Fluorophenyl)sulfonyl]-N-({2-[4-(pyridin-3-ylmethyl)piperazin-1-yl]-6-[4-(trifluoromethyl)phenyl]pyridin-4-yl}methyl)-L-prolinamide]: 682 nM.

With `O=C(NCc1cc(-c2ccc(C(F)(F)F)cc2)nc(N2CCN(Cc3ccncc3)CC2)c1)[C@@H]1C=CCN1S(=O)(=O)c1ccc(F)cc1` [Example 329, (2S)-1-[(4-Fluorophenyl)sulfonyl]-N-({2-[4-(pyridin-4-ylmethyl)piperazin-1-yl]-6-[4-(trifluoromethyl)phenyl]pyridin-4-yl}methyl)-2,5-dihydro-1H-pyrrole-2-carboxamide], the IC50 was 1760 nM. `O=C(NCc1cc(NCc2ccccn2)nc(-c2ccc(C(F)(F)F)cc2)c1)[C@@H]1C=CCN1S(=O)(=O)c1ccc(Cl)s1` [Example 330, (2S)-1-[(5-Chlorothiophen-2-yl)sulfonyl]-N-({2-[(pyridin-2-ylmethyl)amino]-6-[4-(trifluoromethyl)phenyl]pyridin-4-yl}methyl)-2,5-dihydro-1H-pyrrole-2-carboxamide]: the IC50 amounted to 604 nM. Consider `CN(C)c1cc(CNC(=O)[C@@H]2CCCN2S(=O)(=O)c2ccc(F)cc2)cc(-c2ccc(C(F)(F)F)cc2)n1` [Example 331, N-({2-(Dimethylamino)-6-[4-(trifluoromethyl)phenyl]pyridin-4-yl}methyl)-1-[(4-fluorophenyl)sulfonyl]-L-prolinamide], for which the IC50 is 176 nM. Take `CN(C)c1cc(CNC(=O)[C@@H]2CCCN2S(=O)(=O)c2ccc(Cl)s2)cc(-c2ccc(C(F)(F)F)cc2)n1` [Example 332, 1-[(5-Chlorothiophen-2-yl)sulfonyl]-N-({2-(dimethylamino)-6-[4-(trifluoromethyl)phenyl]pyridin-4-yl}methyl)-L-prolinamide]: the IC50 came to 58 nM. In the case of `CC1CCCN1c1cc(CNC(=O)[C@@H]2CCCN2S(=O)(=O)c2ccc(Cl)s2)cc(-c2ccc(C(F)(F)F)cc2)n1` (stereo partly drawn) [Example 333, 1-[(5-Chlorothiophen-2-yl)sulfonyl]-N-({2-(2-methylpyrrolidin-1-yl)-6-[4-(trifluoromethyl)phenyl]pyridin-4-yl}methyl)-L-prolinamide], the IC50 was 73 nM.
